Values of other authors in US20040115266A1, “Oral itraconazole formulations and methods of making the same” (priority 2004, published 2004).

CCC(C)n1ncn(-c2ccc(N3CCN(c4ccc(OCC5COC(Cn6cncn6)(c6ccc(Cl)cc6Cl)O5)cc4)CC3)cc2)c1=O (single isomer, unassigned; (+)) [Itraconazole, (+)-cis-4-[4-[4-[4-[[2-(2,4-dichlorophenyl)-2-(1H-1,2,4-triazol-1-ylmethyl)-1,3-dioxolan-4-yl]methoxy]phenyl]-1-piperazinyl]phenyl]-2,4-dihydro-2-(1-methylpropyl)-3H-1,2,4-triazol-3-one]
0.1 N Hydrochloric acid solubility (0.1 N Hydrochloric acid): < 6 micrograms per milliliter
water solubility (water): less than 1 microgram per milliliter
